According to article PMC2361324, “Phase 1 trial of the antiangiogenic peptide ATN-161 (Ac-PHSCN-NH2), a beta integrin antagonist, in patients with solid tumours” (British Journal of Cancer, 2006):

Experiment: Toxicity / adverse events in phase 1 trial (NCI CTC v2.0)
Format: in vivo, human
Conditions: for Number of patients with ATN-161-associated adverse events: possible, probable or definite relationship
Protocol: ATN-161 was administered as a 10-min infusion, three times per week. Sequential cohorts of three patients were enrolled to eight different dose levels (0.1, 0.25, 0.5, 1.0, 2.0, 4.0, 8.0 and 16.0 mg kg^−1). All patients in a given dose level were evaluated for at least 28 days before patients could be treated at the next higher dose level. Patients receiving therapy for <1 cycle (4 weeks) were to be replaced unless they had experienced a DLT. Toxicity was evaluated according to the NCI Common Terminology Criteria (CTC) Version 2.0. Dose-limiting toxicities were defined as any of the following treatment-related events occurring during the first cycle of therapy: Grade 4 neutropenia or febrile neutropenia, any other Grade 3 or greater nonhaematologic toxicity, or any toxicity requiring ATN-161 to be held for more than 1 week (i.e., three consecutive missed doses). In the event of DLT, dosing was to be held until recovery to at least Grade 1 toxicity and a new dosing cycle for that patient was to be initiated at the investigator's discretion at 50% of the previous dose. […] In the event of Grade 2 toxicity involving vital organs (hepatic, pulmonary, renal, neurologic, gastrointestinal or cardiotoxicity), the dose of ATN-161 was to be held until recovery to Grade 0–1 before a new cycle was initiated at 100% dosing. If the Grade 2 toxicity recurred, dosing was to be held until recovery to Grade 0–1 and the next cycle would resume at 50%. Occurrence of DLT at a given dose level would require further enrolment of up to six patients at that dose level to determine if the MTD had been exceeded. The MTD was defined as one dose level below which ⩾2/6 patients experienced a DLT. Treatment could continue until progressive disease, or one of the following: unacceptable toxicity, intercurrent illness, patient declined further treatment, or physician decision in view of a patient's other medical conditions.
During treatment, patients were evaluated monthly with physical examinations including toxicity assessment using the CTC, ECOG PS, serum chemistry, haematology and coagulation testing. Tumour burden was reassessed every two cycles (8 weeks) by physical exam or radiological methods as appropriate using RECIST ([Therasse et al, 2000]).
No inferential analyses were performed. Data are presented in a descriptive fashion. Treatment-emergent adverse events were translated from investigator terms to MedDRA terminology and summarised within and across dose levels for all patients who received at least one dose of ATN-161. Treatment administration is described for all patients, including drug/dose administration, number of cycles, dose modifications or delays and duration of therapy.

[1] = dose level 0.5 mg kg^−1, ATN-161-associated, any course
[2] = dose level 1.0 mg kg^−1, ATN-161-associated, any course
[3] = dose level 2.0 mg kg^−1, ATN-161-associated, any course
[4] = dose level 4.0 mg kg^−1, ATN-161-associated, any course

Ac-PHSCN-NH2 [ATN-161, Ac-PHSCN-NH2]
Number of patients with Muscle cramps [1]: 1
Number of patients with Sweating increased [1]: 1
Number of patients with ATN-161-associated adverse events (dose level 0.5 mg kg^−1, any course): 1
Number of patients with Cellulitis [2]: 1
Number of patients with Dry mouth [2]: 1
Number of patients with Pain in limb [2]: 1
Number of patients with Paresthesia [2]: 1
Number of patients with Phlebitis not otherwise specified (NOS) [2]: 1
Number of patients with ATN-161-associated adverse events (dose level 1.0 mg kg^−1, any course): 1
Number of patients with Anemia NOS [3]: 1
Number of patients with Hypotension NOS [3]: 1
Number of patients with Oral candidiasis [3]: 1
Number of patients with ATN-161-associated adverse events (dose level 2.0 mg kg^−1, any course): 2
Number of patients with Constipation [4]: 1
Number of patients with Fatigue [4]: 1
Number of patients with Nausea [4]: 2
Number of patients with ATN-161-associated adverse events (dose level 4.0 mg kg^−1, any course): 2
Number of patients with Nausea (dose level 8.0 mg kg^−1, ATN-161-associated, any course): 1
Number of patients with ATN-161-associated adverse events (dose level 8.0 mg kg^−1, any course): 1
Number of patients with Hypotension NOS (dose level 16.0 mg kg^−1, ATN-161-associated, any course): 1
Number of patients with ATN-161-associated adverse events (dose level 16.0 mg kg^−1, any course): 1
Dose-limiting toxicities (DLTs) (patients, 0.1-16 mg kg^−1 thrice weekly i.v., 26 patients): no DLTs occurred
MTD (maximum tolerated dose) (patients, 10-min i.v. infusion three times per week, not reached, 16 mg kg^−1 designated maximum administered dose): > 16 mg/kg
